Assay results: PubChem BioAssay AID624491 (Broad Institute, 2012)
Calls of active or inactive are those of the source.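 The calls were made as follows: active = fitted curve crossing a set activation limit at or below the highest valid dose tested; inconclusive = flat fit at 30 to 70% activation, or poor fit; inactive = the rest, including signal decreases.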

System: D54 ERlucT glycosylation luciferase reporter, luminescence, 24 h
Experiment: N-linked glycosylation inhibitors, luciferase reporter, dose response, D54 ERlucT cells, luminescence, cherry-picks (AID 624491);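 also: signal gain reflects blocked N-linked glycosylation of a luciferase reporter; actives raise luciferase signal so AC26 marks activators of the reporter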

SMILES | AC26
COc1ccc2c(c1)[C@H]1[C@H](CO2)[C@H](c2ccccc2)[C@]2(C)C(=O)Nc3cc(C)ccc3C(=O)N12 | 51.9 nM
COc1cc(C2Sc3ccccc3NC3=C2C(=O)OC3)cc(OC)c1OC (stereo not given) | 12300 nM
C[C@@]12C(=O)Nc3cc(F)c(F)cc3C(=O)N1[C@H]1c3cc(Cl)ccc3OC[C@@H]1[C@@H]2c1ccccc1 | 789 nM
Cn1c(=O)cc(OCCCC(=O)NC2CCCC2)c2ccccc21 | 2400 nM
COc1ccccc1-c1cc(C(=O)Nc2cc(C)nn2-c2ccccc2)no1 | 760 nM
COc1ccc([C@H]2CC(=O)C=C(c3c(OC)cccc3OC)C2)cc1 | 3260 nM
COc1cc(/C=N/n2cnc3scc(-c4cccs4)c3c2=O)cc(OC)c1OC | 701 nM
O=C1CCCN1CCCNc1nc(NCc2ccccc2)nc2ccsc12 | 4240 nM
CC[C@H](C)C(=O)O[C@H]1CCC=C2C=C[C@H](C)[C@H](CC[C@@H]3C[C@@H](O)CC(=O)O3)[C@H]21 | 180 nM
Cc1cc(C)nc(SC2CC(=O)N(c3ccc(C)c(C)c3)C2=O)n1 (stereo not given) | 14300 nM
Cc1nn(-c2ccccc2)c(Cl)c1/C=C/C(=O)c1ccc(O)cc1 | 5020 nM
COc1ccc(NC(=O)c2cccc3c(-c4ccc(O)c(OC)c4)coc23)cc1 | 13400 nM
O=C(Nc1ccc(-c2nc3cc(NC(=O)c4cccs4)ccc3o2)cc1)c1cccs1 | 4310 nM
COc1cc(-c2nc3ccc(N4CCN(C)CC4)cc3[nH]2)cc(OC)c1OC | 535 nM
C=CCn1c(SCC(=O)c2[nH]c(C)c(C(=O)OC)c2C)nc2scc(-c3ccc(OC)c(OC)c3)c2c1=O | 703 nM
c1ccc2c(c1)c1c(c3ccccc32)CN2CCCC2C1 (stereo not given) | 2700 nM
O=C(Nc1cccc(F)c1)c1cc(S(=O)(=O)N2CCOCC2)ccc1N1CCCC1 | 947 nM
CCCNC(=O)c1cc(-c2ccco2)on1 | 3780 nM
COc1ccc2cc(CN(CC3CCCO3)C(=O)Nc3ccccc3OC)c(=O)[nH]c2c1 (stereo not given) | 4020 nM
O=C(CCl)Nc1cccc(S(=O)(=O)NC2=NCCC2)c1 | 939 nM
CCN(CC)CCCNc1ccc2ncn3c4ccc(O)cc4c(=O)c1c23 | 92.6 nM
CCC(c1nc2ccccc2c(=O)n1-c1nc2ccccc2s1)N1C(=O)c2ccccc2C1=O (stereo not given) | 1030 nM
O=C(NCCN1C(=O)S/C(=C\c2ccc(Cl)cc2Cl)C1=O)C1=COCCO1 | > 19500 nM (inactive)
NC(=O)c1ccc(NC(=O)CN2C(=O)NC(c3ccccc3)(c3ccccc3)C2=O)cc1 | 3410 nM
Cn1nc(C(=O)Nc2cccc(S(=O)(=O)N3CCCC3)c2)c2ccccc2c1=O | 666 nM

SMILES | AC26
Nc1ccc(C(=O)Nc2ccccc2N)cc1 | 2880 nM
C[C@@]12C(=O)Nc3cc(Cl)ccc3C(=O)N1[C@H]1c3cc(Cl)ccc3OC[C@@H]1[C@@H]2c1ccccc1 | 4040 nM
COc1ccc(-c2cc(-c3ccc(O)cc3)nc(N)c2C#N)cc1OC | 4050 nM
Cc1nnc2c3ccccc3c(-c3ccccc3)nn12 | 2870 nM
COc1ccc(/C=C2\SC(=O)N(CCNC(=O)C3=COCCO3)C2=O)cc1 | 658 nM
CCOc1ccc2c(c1)OC(c1ccc(OC)cc1)(C(F)(F)F)NC2=O (stereo not given) | 1610 nM
Oc1cc(Nc2ccccc2)cc2cccnc12 | 1030 nM
COc1cc(/C=N/NC(=O)c2ccc(-c3ccccc3)cc2)cc(OC)c1OC | 1350 nM
COc1cc(C(=O)NCC(=O)NCCN2C(=O)S/C(=C\c3ccccc3Cl)C2=O)cc(OC)c1OC | 2430 nM
COc1ccc2c(c1)[C@H]1[C@H](CO2)[C@H](c2ccccc2)[C@]2(C)C(=O)Nc3cc(OC)c(OC)cc3C(=O)N12 | 13.1 nM
CN(C)/N=C/c1ccc(Sc2ccc([N+](=O)[O-])cc2[N+](=O)[O-])o1 | 1880 nM
O=C(C[C@@H]1C[C@H]2c3cc(NC(=O)c4cccnc4)ccc3O[C@H]2[C@H](CO)O1)NCc1ccc(Oc2ccccc2)cc1 | 8780 nM
Cc1ccc2c(c1)C(=O)N1[C@H]3c4cc(Cl)ccc4OC[C@@H]3[C@H](c3ccccc3)[C@]1(C)C(=O)N2 | 1260 nM
Cc1ccc(NC(=O)C(Cc2ccccc2)N2C(=O)C3C4CCC(C4)C3C2=O)cc1Cl (stereo not given) | 3240 nM
CC(=O)Nc1cccc(-c2ccnc3c2CC(C)(C(=O)Nc2cccc(C(C)=O)c2)O3)c1 (stereo not given) | 9480 nM
CC(C)c1ccc(NC(=O)CN2C(=O)NC3(CCCCCCC3)C2=O)cc1 | 1210 nM
COc1ccc(Nc2nc(N3CCCC3)nc3ccccc23)c(OC)c1 | 1950 nM
CC(=O)c1cccc(Nc2cc(C)nc3c(C)cccc23)c1 | 5870 nM
COc1cc(C(=O)NCCOc2cc(C)cc(C)c2)cc(OC)c1OC | 2370 nM
CCOc1ccc(C(=O)n2cc(C(=O)OC)c3ccccc32)cc1 | > 19500 nM (inactive)
COc1ccc(CCn2c(=N)c(C(=O)NCC3CCCO3)cc3c(=O)n4cccc(C)c4nc32)cc1 (stereo not given) | 575 nM
CC(CCc1ccco1)NC(=O)CCc1nnc2ccc(NCc3ccc(Cl)cc3)nn12 (stereo not given) | 1260 nM
Cc1ccc2c(C)c3ccc4ccccc4c3c[n+]2c1 | 667 nM
Cc1ccc(N2CCN(C3=NC(=O)/C(=C\c4cn[nH]c4-c4ccccc4)S3)CC2)cc1 | 1350 nM
CCOc1cc(/C=C/C(=O)c2ccc3c(c2)OCCO3)ccc1OCC(=O)N(C)C | 3700 nM

SMILES | AC26
COc1ccc(C(=O)CSc2nnc(-c3cc4ccccc4cc3O)n2Cc2ccco2)cc1 | 1840 nM
NC1(C(=O)O)CSSC1 | 221 nM
O=[N+]([O-])c1cc(S(=O)(=O)C(F)(F)F)ccc1Sc1nc2ccccc2[nH]1 | 4570 nM
O=C(COc1ccc(C(=O)c2ccccc2)cc1)NCc1ccc(F)cc1 | 1870 nM
O=C(CCl)Nc1cc(S(=O)(=O)N2CCCCCC2)ccc1Cl | 441 nM
NC(=O)c1cccc(Nc2nc(C(N)CCc3ccccc3)cs2)n1 (stereo not given) | 8640 nM
COc1cccc(OCc2nc3ncc(Br)cc3[nH]2)c1 | 1810 nM
O=C(NCCc1ccccc1)c1coc(=O)c(Br)c1 | 1530 nM
Cc1ccc(C(c2cc(Cl)c3cccnc3c2O)N2CCN(C)CC2)cc1 (stereo not given) | 1280 nM
CC(C)(C)c1ccc(OCC(=O)Nc2ccncc2)c(Br)c1 | 4130 nM
O=C(Nc1ncccc1O)c1ccc(C(=O)c2ccccc2)cc1 | 5180 nM
COc1cc(NC(=O)c2noc(C)c2[N+](=O)[O-])c(OC)cc1Cl | 632 nM
O=c1cc(-c2ccccc2)nc2cc(-c3ccc(F)cc3)[nH]n12 | 4270 nM
COc1ccc(C(=O)Nc2ccc3[nH]c(-c4cccc(OC)c4)cc(=O)c3c2)cc1 | 330 nM
CS(=O)(=O)c1cccc(C(=O)Nc2ccc(-c3nc4ccccc4[nH]3)cc2)c1 | 3070 nM
COc1cc(-c2noc(C)c2-c2ccc(N(C)C)nc2)cc(OC)c1OC | 112 nM
O=C(O)c1ccc(N/N=C/c2ccc(-c3ccc(Cl)cc3Cl)o2)cc1 | 5330 nM
Cc1cc(Sc2ccc([N+](=O)[O-])cn2)ccc1Br | 6940 nM
Cc1ccc(C)c(NC(=S)NC(NC(=O)Cc2cccc3ccccc23)C(Cl)(Cl)Cl)c1 (stereo not given) | 1270 nM
COc1ccc([C@@H]2[C@@H]3C(=O)N(C(C)(C)C)C(=O)[C@@H]3[C@]3(Cc4ccccc4)C(=O)N(c4cccc(Br)c4)C(=O)N23)cc1 | 1600 nM
C=CCOc1ccc2nc(NC(=O)OC)[nH]c2c1 | 414 nM
Cc1c(-c2cccc(Cl)c2)nc2ccccc2c1C(=O)OC/C(O)=C(\C#N)c1nc2ccccc2[nH]1 | 5750 nM
CN(CCCNC(=O)CCCOc1cc(=O)n(C)c2ccccc12)Cc1ccccc1 | 5230 nM
COc1cccc(Oc2ccc(C(F)(F)F)cc2NC(=O)CN2C(=O)NC3(CCCC3)C2=O)c1 | 4850 nM
COc1ccc(OC)c(N(CC(=O)Nc2cccc3ccccc23)S(C)(=O)=O)c1 | 3100 nM
